Legend:
[1] = Particle size distribution by Malvern laser diffraction (Mastersizer S); assay type: physicochemical; settings: for Particle size distribution by Malvern, d(0.1): size below which 10% by volume of the population is found; for Particle size distribution by Malvern, d(0.5): size below which 50% by volume of the population is found; for Particle size distribution by Malvern, d(0.9): size below which 90% by volume of the population is found
Description: The particle size distributions were measured by Malvern Laser Diffraction, using the Mastersizer S model. Laser diffraction relies on the fact that diffraction angle of light is inversely proportional to particle size. Properties of particles are measured and interpreted as measurements of a sphere (a sphere being the only shape that can be described by one unique number). In addition, laser diffraction calculates a particle size distribution based around volume terms, thus eliminating particle count from the determination of particle size. The Mastersizer S model measures particles using a single technique and a single range setting.
D(0.1) is the particle size, in microns, below which 10% by volume distribution of the population is found. D(0.5) is the particle size, in microns, below which 50% by volume distribution of the population is found. D(0.9) is the particle size, in microns, below which 90% by volume distribution of the population is found.

[2] = Determination of powder density (bulk density, tapped density); assay type: physicochemical; settings: for Powder density, TD (tapped density): 1250 taps; for Powder density, BD (bulk density): loose, uncompacted powder
Description: As used herein, “bulk density” or “BD” refers to a density measurement of a loose, uncompacted substance, wherein the volume of the substance includes the air trapped between particles.
As used herein, “tapped density” or “TD” refers to a density measurement of a substance that has been tapped or vibrated, thus minimizing the volume of the substance by eliminating or minimizing the air trapped between particles.
Determination of Powder Density
• 1. Mix powder; • 2. Tare a 50 ml empty cylinder on a 0.01 g sensitivity balance; • 3. Transfer the powder, without compacting, to the cylinder being held at approximately a 45 degree angle to achieve an untapped apparent volume of 40 to 50 ml. • 4. Bring the cylinder containing the sample to a vertical position by a sharp move in order to level the volume for reading. • 5. Read the apparent volume (Va) to the nearest graduated unit; • 6. Weigh the cylinder with sample (the balance gives sample weight M); • 7. Calculate bulk density in g/ml according to the following equation: BD=M/Va; • 8. Perform steps 1-7 again and report the average data of duplicates. Tapped Density • 1. Put the same cylinder used to calculate Bulk Density in a Quantachrome Dual Autotap instrument; • 2. Perform 1250 taps; • 3. Read the tapped volume (Vf) to the nearest graduated unit; • 4. Calculate the tapped density in g/ml according to the following equation: TD=M/Vf; • 5. Perform steps 1-4 again and report the average data of duplicates. Determination of Particle Size

[3] = tested on: acute experimental autoimmune encephalomyelitis (aEAE) model; settings: U.S. Pat. No. 6,077,851; cited from earlier work
[4] = Insoluble matter test: sample mixed in deionized water at ambient temperature; assay type: physicochemical; settings: 55 mg sample in 0.5 mL deionized water
Description: (§1) The subject invention also provides a process for making a pharmaceutical composition comprising laquinimod sodium comprising: • a) obtaining a batch of laquinimod sodium; • b) determining whether insoluble matter is present in the batch of step a) by mixing a sample from the batch in deionized water at room temperature at a ratio of at least 110 mg of sample to 1.0 ml of water, and inspecting the resulting mixture for the presence of insoluble matter; and • c) mixing the batch of step a) with at least one pharmaceutically acceptable carrier if in step b) insoluble matter is determined to be present below a predetermined amount.
as §1, with “A” for “The subject invention also provides a”, “amount. […]” for “amount.”

[5] = Solubility of laquinimod sodium in anti-solvents at room temperature (USP XXV terms); assay type: physicochemical; settings: room temperature (20-25° C.)
Text: The solubility terms are defined below, in accordance with the United States Pharmacopoeia XXV. [table]

[6] = listed as Laguinimod Sodium according to Example 1 (batch B)

| Compound | Particle size distribution by Malvern, d(0.1) [1] [micron] | Particle size distribution by Malvern, d(0.5) [1] [micron] | Particle size distribution by Malvern, d(0.9) [1] [micron] | Powder density, TD (tapped density) [2] [g/ml] | Powder density, BD (bulk density) [2] [g/ml] | further results |
| --- | --- | --- | --- | --- | --- | --- |
| CCN(C(=O)c1c([O-])c2c(Cl)cccc2n(C)c1=O)c1ccccc1.[Na+] [Recrystallized product (Example 14)] | 3.5 | 15.7 | 43.2 | 0.429 | 0.224 |  |
| CCN(C(=O)c1c([O-])c2c(Cl)cccc2n(C)c1=O)c1ccccc1.[Na+] [Laquinimod Sodium prepared according to Example 1 (batch A)] | 1.5 | 7.1 | 23.2 | 0.347 | 0.166 |  |
| CCN(C(=O)c1c(O)c2c(Cl)cccc2n(C)c1=O)c1ccccc1 [Laquinimod, N-ethyl-N-phenyl-1,2,-dihydro-4-hydroxy-5-chloro-1-methyl-2-oxoquinoline-3-carboxamide] |  |  |  |  |  | Efficacy in the aEAE model [3]: effective |
| CCN(C(=O)c1c([O-])c2c(Cl)cccc2n(C)c1=O)c1ccccc1.[Na+] [Laquinimod Sodium prepared according to Example 1 (batch B)] | 2.1 | 10.8 | 35.3 | 0.452 | 0.189 | Particle size distribution by Malvern, d(0.1) [1, 6]: 2.1 micron; Particle size distribution by Malvern, d(0.5) [1, 6]: 10.8 micron; Particle size distribution by Malvern, d(0.9) [1, 6]: 35.3 micron |
| CCN(C(=O)c1c([O-])c2c(Cl)cccc2n(C)c1=O)c1ccccc1.[Na+] |  |  |  |  |  | Dissolution in deionized water [4]: did not completely dissolve |
| CCN(C(=O)c1c([O-])c2c(Cl)cccc2n(C)c1=O)c1ccccc1.[Na+] [Laquinimod Sodium prepared according to Example 1 (batch C)] | 1.3 | 5.9 | 19.4 | 0.362 | 0.158 |  |
| CCN(C(=O)c1c(O)c2c(Cl)cccc2n(C)c1=O)c1ccccc1 [laquinimod sodium] |  |  |  |  |  | Solubility in acetone ([5]; acetone): practically insoluble; Solubility in ethanol ([5]; ethanol): slightly soluble; Solubility in isopropanol ([5]; isopropanol): very slightly soluble |
| CCN(C(=O)c1c([O-])c2c(Cl)cccc2n(C)c1=O)c1ccccc1.[Na+] [Recrystallized product (Example 16)] | 15.7 | 65.5 | 156.4 |  |  |  |
| CCN(C(=O)c1c([O-])c2c(Cl)cccc2n(C)c1=O)c1ccccc1.[Na+] [Recrystallized product (Example 15)] | 6.1 | 21.2 | 51.8 |  |  |  |
| CCN(C(=O)c1c([O-])c2c(Cl)cccc2n(C)c1=O)c1ccccc1.[Na+] [Re-acrystallized product] | 13.3 | 51.1 | 105.1 | 0.758 | 0.498 |  |
